Test results: US4874891A, “Open "D" ring hormone analogs” (Washington University, priority 1986, dated 1989)

Target: T1, 17β-HSD (Homo sapiens, UniProt P14061)
T1 sequence (P14061 1-328): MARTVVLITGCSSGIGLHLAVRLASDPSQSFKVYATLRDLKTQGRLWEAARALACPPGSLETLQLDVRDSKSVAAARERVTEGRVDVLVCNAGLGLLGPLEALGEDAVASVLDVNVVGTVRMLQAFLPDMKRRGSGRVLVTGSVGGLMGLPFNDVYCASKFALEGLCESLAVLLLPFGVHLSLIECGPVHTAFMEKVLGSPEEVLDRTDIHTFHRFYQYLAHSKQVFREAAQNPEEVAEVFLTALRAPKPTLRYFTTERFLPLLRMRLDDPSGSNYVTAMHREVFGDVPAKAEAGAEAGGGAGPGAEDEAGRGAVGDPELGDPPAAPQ
Assay: Time-dependent inactivation of 17β-HSD (NADH production at 340 nm with estradiol and NAD+)
Type: biochemical
Method: The compounds of the invention prepared as described above were tested for their ability to affect the reaction catalyzed by 17β-HSD, as follows.
Approximately 5 μl of a 2-20 mM solution of the test compound in absolute alcohol was added to the incubation mixture, which contained:
200 μM NAD^+ (100 μl of 2 mM stock);
795 μl 100 mM sodium carbonate buffer (pH 9.2, containing 20% glycerol) or 795 μl phosphate buffer (pH 7.4, 20% glycerol);
90 μg of enzyme (supplied as 100 μl of 0.9 μg/μl stock).
Aliquots were removed at intervals and added to 950 μl of assay cocktail, which contained:
100 mM sodium carbonate buffer;
60 μM estradiol in propylene glycol stock;
0.8% human serum albumin.
The activity remaining in the incubation mixture was assessed by NADH production in the assay cocktail monitored by adsorption at 340 nm every 15 sec for 2 min with an automated spectrophotometer.
All aqueous stock solutions were prepared in 100 mM sodium carbonate buffer, 20% glycerol, to maintain enzyme stability. Where additional components were added, such as glutathione, volumes were adjusted accordingly. To assess loss of enzyme activity independent of the test compound, 5 μl ethanol was added in place of steroid stock solution to the assay cocktail.
When aliquots were withdrawn less than 3 min apart, the aliquot was quenched in 900 μl assay buffer without NAD^+ and supplemented with 5 mM glutathione: after all aliquots were withdrawn, samples were assayed by adding NAD^+ (50 μl of a 4 mM stock) and monitored as above.
Compounds of the invention were evaluated in terms of Km, Vmax, and Rp.

With `C#CC(=O)[C@@]1(C)CC[C@@H]2c3ccc(O)cc3CC[C@H]2C1` [--COC.ident.CH, [2S-(2α,4aα,10aβ)]-1-(1,2,3,4,4a,9,10,10a-Octahydro-7-hydroxy-2-methyl-2-phenanthrenyl)-2-propyn-1-one] the “substrate for the enzyme” value (presence of NAD+) was “not a substrate for the enzyme in the presence of NAD^+” and the “effect of NADH on inactivation of the enzyme” value (presence of NADH) was “inactivation of the enzyme is inhibited by the presence of NADH”.
In the case of `C#CC(O)C1(C)CCC2c3ccc(O)cc3CCC2C1` (stereo not drawn) [--CH(OH)C.ident.CH, [2S-[2α(S*),4aα,10aβ]]-α-Ethynyl-1,2,3,4,4a,9,10,10a-octahydro-7-hydroxy-2-methyl-2-phenanthrenemethanol], the “effect of glutathione on inactivation of the enzyme” value (5 mM glutathione) is reported as 5 mM glutathione protects the enzyme from inactivation.
